Publication PMC12320299 (Chemical Science, 2025)

Columns and labels:
[1] = test system: HCT116 TP53 wild-type (TP53WT); experiment: MTT viability assay, HCT116 TP53 wild-type, 96 h; format: cell-based, human
Method: (§1) removed and 100 µL DMSO was added to dissolve the formazan crystals. Photometric quantification was performed at 570 nm with a Multiskan Go 1510 photometer (Thermo Fisher […]
(§2) The absorbances were blank corrected and converted to relative proliferation. The IC50 values (concentration of 50% growth inhibition) were obtained using a sigmoidal fit of the experimental data and calculated as the mean ± standard deviation of at least three independent experiments, each in at least triplicates.
(§3) HCT116, HCT116 p53KO (each 2.000 cells/well) and CT-26 cells (500 cells/well) were seeded in 100 µL/well into flat-bottom 96-well plates (Starlab) and incubated at 37 °C for 96 h in a humidified incubator (Binder CB210) at 5% CO2. The test compound was dissolved in DMSO, serially diluted in the appropriate cell culture medium (see section above) to final DMSO concentrations of ≤0.5% v/v and 100 µL aliquots added to wells in triplicates. […] Optical densities were measured with a microplate reader (ELx808, Biotek) at a wavelength of 550 nm (and a reference wavelength of 690 nm) and blank corrected. […]
(§4) (each 3.000 cells/well) were seeded in 100 µL/well into flat-bottom 96-well plates (Starlab) and incubated at 37 °C for 24 h in a humidified incubator (Binder CB210) at 5% CO2. […] After 24 h of treatment, plates were measured by MTT assay as described above. […]

[2] = Total 101Ru content in tumour, organs and blood by ICP-MS; format: in vivo, BALB/c mice; conditions: 4 h after last injection, 10 mg kg^−1 i.p.
Method: Furthermore, tumour, organs and blood of the 1a-treated mice were collected 4 h after the last injection. […] Intraperitoneally administered compounds are primarily absorbed through the portal circulation, which can lead to a substantial liver exposure.[71] […] This paralleled earlier findings of other metal(arenes) in this tumour model.[72]
Animals. All experiments were carried out with male Balb/c mice according to the regulation of the Ethics Committee for the Care and Use of Laboratory Animals at the Medical University Vienna (BMWF-2022-0.770.291), the guidelines from the Austrian Animal Science Association and the Federation of European Laboratory Animal Science Associations (FELASA). The animals were kept in a pathogen-free conditions, controlled environment with 12 h light–dark cycle with ad libitum access to food and water. Every procedure was done in a laminar airflow […]
Treatment. CT-26 cells ([…] in 50 μL serum-free medium) were injected subcutaneously (s.c.) into the right flank of ten– to eleven-week-old male Balb/c mice. Three days after cell injection, all compounds (dissolved in 10% DMSO in water) were administered […]
1b/2b. Regarding anticancer activity experiments, mice were treated on 5 consecutive days over 2 weeks. Four hours after the last treatment 1a-treated mice were sacrificed and analysed for ruthenium levels in tissue via ICP-MS measurements. […]
Missing data points were imputed. Permutation-based FDR was set to 0.05 and S0 = 0.1 for multi-parameter corrected significance testing of protein regulation. […]
Resources (Version 6.8)13 and STRING (Version 10.0).14
Additionally, statistical analysis of protein regulations from the in vivo samples was performed using the LIMMA R-package.15 P-values where adjusted according to Benjamini-Hochberg16 and a gene set variation analysis was performed (GSVA).17 Protein Sets where constructed using the molecular signature database.18
Total metal content in organs harvested from 1a-treated mice was determined by inductively coupled plasma mass spectrometry (ICP-MS) on an Agilent 7800 instrument and Agilent SPS 4 autosampler using the following parameters: RF power 1550, carrier gas (Ar) 1.08 L∙min-1, plasma gas (Ar) 15 L∙min-1, dwell time 0.1 s, 12 replicates with 100 sweeps. A […]
by Agilent MassHunter (Version C.01.04) software.
The lower limit of quantification of the method was 0.071 µg L-1. Organs, tumour and blood were digested with nitric acid (20% w/w) and diluted with ultrapure water to reach a final nitric acid concentration <4%.

[3] = test system: murine CT26 colon carcinoma cells; experiment: MTT viability assay, CT26, 96 h; format: cell-based; conditions: wildtype TP53
Method: as §1, §2, §3, §4

With `CCC1=C2[O][Ru][O]C2(n2cccn2)c2ccccc2C1=O.Cc1ccc(C(C)C)cc1` (stereo not drawn) [Compound 1a, [(3-ethyl-4-oxo-(pyrazolyl)-dihydronaphthalene)(cymene)ruthenium(II)]] the IC50 [1] was 130 ± 20 nM, the “101Ru content, blood clot” value [2] was less than 0.4 mg/kg and the “101Ru content, blood serum” value [2] was less than 0.4 mg/kg. The “101Ru content, liver” value [2] was 10 ± 1 mg/kg, the “101Ru content, tumour” value [2] was 0.9 ± 0.7 mg/kg and the IC50 [3] was 800 ± 150 nM.
